According to patent US20230181633A1, “METHODS OF TREATING CANCER USING A COMBINATION OF TUMOR MEMBRANE VESICLES AND METFORMIN” (METACLIPSE THERAPEUTICS CORPORATION, priority 2019, published 2023):

Tests used:
[1] = tested on: SCCVII cells; test: SCCVII squamous cell tumor challenge, tumor growth over time; format: in vivo, C3H/Hej mice
Description: FIGS. 1(A-C) is a set of graphs showing tumor growth over time. […] Tumor growth was measured over time. […] Tumors were palpable at day 3, which is when treatment with PBS, MET alone, TMV alone, or TMV + MET was initiated. The subsequent treatments were employed at days […]. […] Tumors were palpable at day 3, treatment of PBS control, MET alone, TMV alone, or TMV + MET was applied at days 10, 17, 24, 31, and 40. Tumor growth was measured over time. n=5 per group, two-way ANOVA with Tukey’s multiple comparison for statistical significance. For FIGS. 1(A-C), filled circle is PBS treatment group, filled square is MET alone treatment group, filled grey triangle is TMV alone treatment group, upside down triangle is MET + TMV treatment group. *p<0.05, **p<0.01, ***p<0.001.
In the same model (SCCVII), the TMV and MET treatment were delayed and given at Day 10 when the tumors were established (about 50 mm^2) (FIG. 1C).

[2] = tested on: immune cell subtypes in blood; test: Immune cell subtypes in blood of 4T1-challenged mice; format: in vivo, mouse
Description: FIGS. 2(A-C) is a set of graphs showing percentages of T-cell subtypes in the blood of mice with 4T1 tumor. After 4T1 tumor challenge and treatment with water, TMV alone, MET alone, or TMV+MET, mouse blood samples were analyzed for percentage of CD3+ (FIG. 2A), CD4+ (FIG. 2B), and CD8+ (FIG. 2C) T-cells, in relation to CD45+ T cells. Filled circle is water treatment group, filled square is MET treatment group, filled grey triangle is TMV treatment group, upside down triangle is TMV + MET treatment group.
FIGS. 3(A-B) is a set of Fluorescence Activated Cell Sorting (FACS) plots showing presence of myeloid-derived suppressor cells (MDSCs) (FIG. 3A) and CD3+ cells (FIG. 3B) in the blood of 4T1 tumor-challenged mice.
FIG. 4 is a set of graphs showing amounts of MDSCs (top panel) and CD3+ T cells (bottom panel) in the blood of 4T1 tumor-challenged mice treated with water, TMV alone, MET alone, or TMV+MET. Filled circle is water treatment group, filled square is MET treatment group, filled grey triangle is TMV treatment group, upside down triangle is TMV + MET treatment group. **p<0.01.
The 4T1-challenged mice were further analyzed for immunological effects upon administration of TMV, MET, or both. Blood samples were obtained from mice, and samples were subjected to analysis to determine presence of immune cell subtypes.

[3] = tested on: 4T1 tumor cells; test: Lung metastasis in 4T1-challenged mice; format: in vivo, mouse
Description: FIGS. 6(A-B) is a set of graphs showing the amount of 4T1 tumor cells (FIG. 6A) and metastatic clones (FIG. 6B) obtained in the lungs of 4T1 tumor-challenged mice treated with water, TMV alone, MET alone, or TMV + MET. **p<0.01, ***p<0.001,
4T1-challenged mice were also analyzed for their metastatic potential. Upon sacrificing the mice, the lungs were analyzed for tumor colony forming units […] and overall total tumor cells (FIG. 6B).

[4] = tested on: oral squamous cell carcinoma MOC2 cells; test: MOC2 head and neck cancer model, tumor growth; format: in vivo, C57BL/6J mice; settings: MOC2-challenged mice, treatment from Day 3 (FIG. 9A, 9B)
Description: C57BL/6J mice were inoculated with 500,000 oral squamous cell carcinoma MOC2 cells s.c. in the hind flank. Tumors were palpable at day 3 post challenge. PBS, MET alone, TMV alone, or a combination of TMV + MET was employed at days 3, 8, 13, 18, and 25. Tumor growth was measured over time. […] Filled circle is PBS treatment group, filled square is MET alone treatment group, filled grey triangle is TMV alone treatment group, upside down triangle is MET + TMV treatment group. n=5 per group, two-way ANOVA with Tukey’s multiple comparison for statistical significance. *p<0.05, **p<0.01.
In the murine head and neck MOC2 cancer model, the TMV vaccine generated from MOC2 tumors was administered at Day 3, while MET was started at Day 3 and continued every other day until end point.

[5] = tested on: MOC2 cells; test: MOC2 spontaneous lung metastasis; format: in vivo, C57BL/6J mice; settings: lungs harvested after 25 days of tumor growth (FIG. 10)
Description: C57BL/6J mice were inoculated with 500,000 MOC 2 cells s.c. in the hind flank. […] PBS, MET alone, TMV alone, or a combination of TMV + MET was employed at days 3, 8, 13, 18, and 25. Lungs were harvested and dispersed into single cell suspension after 25 days of tumor growth. Metastatic tumor cells were selected using G418 in vitro for 11-14 days and metastatic cells were quantified using a Nexelcom T4 cell counter.
In the murine head and neck MOC2 cancer model, the TMV vaccine generated from MOC2 tumors was administered at Day 3, while MET was started at Day 3 and continued every other day until end point. […] The lungs from these MOC2-challenged mice were harvested after 25 days of tumor growth and the number of metastatic cells was quantified after suspending the lungs into a single cell suspension (FIG. 10).

[6] = tested on: 4T1 mouse breast cancer cells; test: Survival after surgical resection of 4T1 tumors; format: in vivo
Description: FIG. 8 is a graph showing survival of mice treated with PBS, TMV alone, MET alone, or TMV+MET after surgical resection of tumors. Mice were challenged 10 days before surgery with 4T1 tumor cells. After tumor establishment, tumors were resected on Day 0. Beginning on Day 5, 50 mg/kg metformin was administered. On Days 5 and 12, 4T1-derived TMVs were administered. […] Solid line is PBS treatment group, dashed line is MET alone, dotted line is TMV alone, dash and dot line is TMV and MET treatment.
Mice were divided into four groups of five mice per group, wherein each group was to be treated with either a PBS control, metformin (MET) alone, 4T1-derived TMV (as described in Example 1) or TMV+MET. Each mouse was challenged with 4T1 mouse breast cancer cells by subcutaneous injection and tumors were later surgically resected (Day 0). On Day 5, mice in the MET and TMV+MET groups were administered 50 mg/kg metformin in drinking water daily until Day 20. On Days 5 and 12, mice in the TMV and TMV+MET groups were administered a dose of TMVs formed from 4T1 cells. Mice were then analyzed for survival (FIG. 8).

CN(C)C(=N)NC(=N)N [MET, 3-(diaminomethylidene)-1,1-dimethylguanidine]
tumor growth, established tumors ([1]; SCCVII, treatment delayed to Day 10, tumors about 50 mm^2 (FIG. 1C)): did not have a significant decrease in growth | tumor size (in words) ([1]; SCCVII-challenged mice, treatment from day 3 (FIG. 1B)): reduced tumor size | amount of myeloid derived suppressor cells (MDSC) in blood samples ([2]; 4T1-challenged mice (FIG. 3A, FIG. 4 upper panel)): decreased | amount of CD3+ T cells in the blood ([2]; 4T1-challenged mice, by week 2, vs PBS control (FIG. 2A)): increased | amount of CD4+ T cells in the blood ([2]; 4T1-challenged mice, by week 2, vs PBS control (FIG. 2B)): increased | amount of CD8+ T cells in the blood ([2]; 4T1-challenged mice, by week 2, vs PBS control (FIG. 2C)): increased | lung metastasis: tumor colony forming units ([3]; lungs of 4T1-challenged mice at sacrifice (FIG. 6A)): not MET alone significantly reduced | lung metastasis: overall total tumor cells ([3]; lungs of 4T1-challenged mice at sacrifice (FIG. 6B)): not MET alone significantly reduced | MOC2 tumor growth / tumor area [4]: no reduction in tumor growth | number of metastatic MOC2 cells per lung [5]: did not have a significant reduction | mouse survival post-surgery (in words) ([6]; 4T1 tumors resected Day 0 (FIG. 8)): increased mouse survival | survival ([6]; at day 60 after resection of 4T1 tumors, 50 mg/kg metformin from Day 5 (FIG. 8)): 0%
